Test results taken from US20160095925A1 (CADILA HEALTHCARE LIMITED, priority 2014, published 2016).
Like-named read-outs stand apart in the source and are kept apart here.

Assays:
[1] = cited from earlier work
[2] = Analytical results of Azacitidine (API), untreated and gamma radiated: description, related substances; format: physicochemical
[3] = formation of RGU increased in acidic and basic conditions; cited from earlier work

Description ([2]; gamma radiated): White to off
Related Substances: Single max. impurity ([2]; gamma radiated): 0.05%
Related Substances: Total impurities ([2]; gamma radiated): 0.24%
Description ([2]; untreated): White to off
Related Substances: Single max. impurity ([2]; untreated): 0.04%
Related Substances: Total impurities ([2]; untreated): 0.19%
SMILES: Nc1ncn([C@@H]2O[C@H](CO)[C@@H](O)[C@H]2O)c(=O)n1 [Azacitidine, 4-amino-1-β-D-ribofuranosyl-1,3,5-triazin-2(1H)-one]
Solubility ([1]; 5% Tween 80 in water): sparingly soluble
Solubility ([1]; 5% dextrose in water): sparingly soluble
Solubility ([1]; N-methyl-2-pyrrolidone): sparingly soluble
Solubility ([1]; acetone): insoluble
Solubility ([1]; dimethylsulfoxide (DMSO)): soluble
Solubility ([1]; ethanol/water (50/50)): slightly soluble
Solubility ([1]; ethanol): insoluble
Solubility ([1]; methyl ethyl ketone): insoluble
Solubility ([1]; normal saline): sparingly soluble
Solubility ([1]; polyethylene glycol): slightly soluble
Solubility ([1]; propylene glycol): slightly soluble
Solubility ([1]; water saturated octanol): sparingly soluble
Solubility ([1]; water): sparingly soluble
Optimal pH for stable formulation [3]: 6-7
